Patent US7741327B2 (Hoffmann-La Roche Inc., priority 2008, dated 2010)

What follows are molecules tested against T1, Recombinant human liver GK1 (GST-GK) (Homo sapiens, UniProt P35557) (assay: In vitro glucokinase activity (G6PDH-coupled NADH assay)). Details: 30° C., 5 mM D-glucose, 10% DMSO.
T1 construct: made in house; host or cells: E. coli
T1 sequence (P35557 1-466 isoform P35557-2): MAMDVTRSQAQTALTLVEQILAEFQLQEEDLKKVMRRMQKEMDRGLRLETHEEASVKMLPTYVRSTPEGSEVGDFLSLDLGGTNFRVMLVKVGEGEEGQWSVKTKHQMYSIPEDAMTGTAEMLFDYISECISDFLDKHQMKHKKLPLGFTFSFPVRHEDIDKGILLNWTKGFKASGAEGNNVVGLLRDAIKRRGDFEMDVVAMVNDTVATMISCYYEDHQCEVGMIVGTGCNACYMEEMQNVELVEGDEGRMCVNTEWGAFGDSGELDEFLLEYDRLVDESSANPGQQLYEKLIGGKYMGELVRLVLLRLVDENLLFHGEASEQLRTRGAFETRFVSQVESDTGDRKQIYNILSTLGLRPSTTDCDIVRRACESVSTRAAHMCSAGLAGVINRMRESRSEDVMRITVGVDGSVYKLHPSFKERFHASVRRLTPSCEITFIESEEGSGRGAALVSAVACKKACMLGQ
Format: biochemical
Outline: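 GST-tagged human liver GK1 from E. coli, assayed at 30° C in 25 mM Hepes pH 7.1 with 5 mM D-glucose, 1 mM ATP, 1.8 mM NAD and G6PDH coupling, 10% DMSO final; reaction started with enzyme after 10 min preincubation. NADH formation followed at OD340; SC1.5 is activator concentration giving 50% increase over DMSO control rate.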

In order of falling “SC1.5 (concentration of activator that produced a 50% increase in the activity of GK)” value:
1. CCOc1ccccc1OC1=CC(=O)N([C@@H](CC(C)C)C(=O)Nc2ccn(C[C@@H]3COC(C)(C)O3)n2)C1 [Example 83, (S)-2-[4-(2-Ethoxy-phenoxy)-2-oxo-2,5-dihydro-pyrrol-1-yl]-4-methyl-pentanoic acid [1-((R)-2,2-dimethyl-[1,3]dioxolan-4-yl-methyl)-1H-pyrazol-3-yl]-amide]  8.055 µM
2. CCOc1ccccc1OC1=CC(=O)N([C@@H](CC(C)C)C(=O)Nc2ccn(C)n2)C1.Cl [Example 82, (S)-2-[4-(2-Ethoxy-phenoxy)-2-oxo-2,5-dihydro-pyrrol-1-yl]-4-methyl-pentanoic acid (1-methyl-1H-pyrazol-3-yl)-amide Hydrochloride]  2.591 µM
3. CCOc1ccccc1OC1=CC(=O)N([C@@H](CC(C)C)C(=O)Nc2ccn(CCO)n2)C1.Cl [Example 85, (S)-2-[4-(2-Ethoxy-phenoxy)-2-oxo-2,5-dihydro-pyrrol-1-yl]-4-methyl-pentanoic acid [1-(2-hydroxy-ethyl)-1H-pyrazol-3-yl]-amide Hydrochloride]  1.998 µM
4. CCOc1ccccc1OC1=CC(=O)N([C@@H](CC(C)C)C(=O)Nc2ccn(C[C@@H](O)CO)n2)C1.Cl [Example 84, (S)-2-[4-(2-Ethoxy-phenoxy)-2-oxo-2,5-dihydro-pyrrol-1-yl]-4-methyl-pentanoic acid [1-((R)-2,3-dihydroxy-propyl)-1H-pyrazol-3-yl]-amide Hydrochloride]  1.312 µM
5. CCOc1ccccc1OC1=CC(=O)N([C@@H](CC(C)C)C(=O)Nc2ccn(CC(C)(C)O)n2)C1.Cl [Example 81, (S)-2-[4-(2-ethoxy-phenoxy)-2-oxo-2,5-dihydro-pyrrol-1-yl]-4-methyl pentanoic acid [1-(2-hydroxy-2-methyl-propyl)-1H-pyrazol-3-yl]-amide hydrochloride]  0.932 µM
6. CC(C)C[C@@H](C(=O)Nc1ccn(C[C@@H]2COC(C)(C)O2)n1)N1CC(Oc2cccc(Cl)c2Cl)=CC1=O [Example 79, (S)-2-[4-(2,3-Dichloro-phenoxy)-2-oxo-2,5-dihydro-pyrrol-1-yl]-4-methyl-pentanoic acid [1-((R)-2,2-dimethyl-[1,3]dioxolan-4-yl-methyl)-1H-pyrazol-3-yl]-amide]  0.682 µM
7. CC(C)C[C@@H](C(=O)Nc1ccn(C)n1)N1CC(Oc2cccc(Cl)c2Cl)=CC1=O.Cl [Example 78, (S)-2-[4-(2,3-Dichloro-phenoxy)-2-oxo-2,5-dihydro-pyrrol-1-yl]-4-methyl-pentanoic acid (1-methyl-1H-pyrazol-3-yl)-amide Hydrochloride]  0.4 µM
8. CC(C)C[C@@H](C(=O)Nc1ccn(C[C@@H](O)CO)n1)N1CC(Oc2cccc(Cl)c2Cl)=CC1=O.Cl [Example 80, (S)-2-[4-(2,3-Dichloro-phenoxy)-2-oxo-2,5-dihydro-pyrrol-1-yl]-4-methyl-pentanoic acid [1-((R)-2,3-dihydroxy-propyl)-1H-pyrazol-3-yl]-amide Hydrochloride]  0.211 µM
9. CC(C)(O)Cn1ccc(NC(=O)[C@H](CC2CCCCO2)N2CC(Oc3cccc(Cl)c3Cl)=CC2=O)n1 (stereo partly drawn) [Example 92, (S)-2-[4-(2,3-Dichloro-phenoxy)-2-oxo-2,5-dihydro-pyrrol-1-yl]-N-[1-(2-hydroxy-2-methyl-propyl)-1H-pyrazol-3-yl]-3-(tetrahydro-pyran-2-yl)-propionamide]  0.161 µM
10. CC1(C)OC[C@@H](Cn2ccc(NC(=O)[C@H](CC3CCCC3)N3CC(Oc4c(F)cccc4F)=CC3=O)n2)O1 [Example 87, (S)-3-Cyclopentyl-2-[4-(2,6-difluoro-phenoxy)-2-oxo-2,5-dihydro-pyrrol-1-yl]-N-[1-((R)-2,2-dimethyl-[1,3]dioxolan-4-yl-methyl)-1H-pyrazol-3-yl]-propionamide]  0.093 µM
11. Cl.Cn1ccc(NC(=O)[C@H](CC2CCCCC2)N2CC(Oc3ccccc3C(F)(F)F)=CC2=O)n1 [Example 90, (S)-3-Cyclohexyl-N-(1-methyl-1H-pyrazol-3-yl)-2-[2-oxo-4-(2-trifluoromethyl-phenoxy)-2,5-dihydro-pyrrol-1-yl]-propionamide Hydrochloride]  0.088 µM
12. O=C(O)c1ccc(NC(=O)[C@H](CC2CCCCC2)N2CC(Oc3c(F)ccc(Cl)c3F)=CC2=O)nc1 [Example 74, 6-{(S)-2-[4-(3-Chloro-2,6-difluoro-phenoxy)-2-oxo-2,5-dihydro-pyrrol-1-yl]-3-cyclohexyl-propionylamino}-nicotinic acid]  0.055 µM
13. O=C(Nc1ccn(CCO)n1)[C@H](CC1CCCC1)N1CC(Oc2c(F)cccc2F)=CC1=O [Example 89, (S)-3-Cyclopentyl-2-[4-(2,6-difluoro-phenoxy)-2-oxo-2,5-dihydro-pyrrol-1-yl]-N-[1-(2-hydroxy-ethyl)-1H-pyrazol-3-yl]-propionamide]  0.05 µM
14. COCCn1ccc(NC(=O)[C@H](CC2CCCCC2)N2CC(Oc3ccccc3C(F)(F)F)=CC2=O)n1.Cl [Example 91, (S)-3-Cyclohexyl-N-[1-(2-methoxy-ethyl)-1H-pyrazol-3-yl]-2-[2-oxo-4-(2-trifluoromethyl-phenoxy)-2,5-dihydro-pyrrol-1-yl]-propionamide Hydrochloride]  0.039 µM
15. Cl.Cn1ccc(NC(=O)[C@H](CC2CCCCC2)N2CC(Oc3c(F)ccc(Cl)c3F)=CC2=O)n1 [Example 75, (S)-2-[4-(3-Chloro-2,6-difluoro-phenoxy)-2-oxo-2,5-dihydro-pyrrol-1-yl]-3-cyclohexyl-N-(1-methyl-1H-pyrazol-3-yl)-propionamide Hydrochloride]  0.037 µM
16. COC(=O)c1ccc(NC(=O)[C@H](CC2CCCCC2)N2CC(Oc3c(F)ccc(Cl)c3F)=CC2=O)nc1 [Example 73, 6-{(S)-2-[4-(3-Chloro-2,6-difluoro-phenoxy)-2-oxo-2,5-dihydro-pyrrol-1-yl]-3-cyclohexyl-propionylamino}-nicotinic acid methyl ester]  0.036 µM
17. Cl.O=C(Nc1ccn(C[C@@H](O)CO)n1)[C@H](CC1CCCCC1)N1CC(Oc2c(F)ccc(Cl)c2F)=CC1=O [Example 76, (S)-2-[4-(3-Chloro-2,6-difluoro-phenoxy)-2-oxo-2,5-dihydro-pyrrol-1-yl]-3-cyclohexyl-N-[1-((R)-2,3-dihydroxy-propyl)-1H-pyrazol-3-yl]-propionamide Hydrochloride]  0.017 µM
